# From PMC8959664, “Elucidating Therapeutic and Biological Potential of Berberis baluchistanica Ahrendt Bark, Leaf, and Root Extracts” (Frontiers in Microbiology, 2022)
# Tested on: T1, trypsin
# T1 construct: gene PRSS1; commercial-type enzyme; bovine is only a guess (porcine equally possible)
# Test: casein digestion, perchloric acid precipitation, absorbance […] nm
# Assay type: biochemical
# Details: casein 0.8% substrate, Tris-HCl pH 7.4, 37°C, 5 min preincubation
compound,measurement,value
CC(=O)Oc1ccccc1C(=O)O [aspirin],Protein inhibition denaturation IC50,430 ± 100 µg/mL
